The test system of data set [1] is human foreskin fibroblasts (HFFs). The data set can be described thus: SRB toxicity assay on human foreskin fibroblasts. The format is cell-based. As to conditions: Fibroblast. The procedure:
The murine (C57BL/6) glioma cell line, GL-26, which is highly tumorigenic in the C57BL/6 mice. GL-26 cells were cultured in DMEM/F12 supplemented with 10% FCS, 1% penicillin/streptomycin, 1% L-glutamine and 1% non-essential amino acids. Human foreskin fibroblasts (HFFs) were cultured in DMEM/F12 supplemented with 10% FCS and 1% penicillin/streptomycin. Primary murine astrocytes were purified from C57BL/6 neonate brains and cultured in DMEM/F12 supplemented with 10% FCS, 1% non-essential amino acids, 1% Lglutamine, 50 IU/ml penicillin, […] and 10 mM Hepes buffer.
The sulforhodamine B (SRB) cytotoxicity assays were adapted from Skehan et al. (22). Briefly, either HFF, primary astrocytes or GL-26 cells were plated in 96-well plates at a density of 4,000 cells/well in a volume of 100 µL overnight at 37° C. and 5% CO2. DMSO stock solutions of SBP, MSBP or TMZ were used at a concentration range of 0.1-25 μM for 48 hr before the supernatant was discarded and the cells were fixed for 1 hr with 10% cold trichloroacetic acid (100 μL, per well). Cells used in recovery assay received fresh media for 48 hrs following the 48 hr drug incubation. The plate was then washed 5 times with de-ionized water, air dried, and stained with 0.4% SRB for 10 min (50 μL, per well). After washing 5 times in 1% acetic acid and air-drying, bound SRB was dissolved in 10 mM unbuffered Tris base (pH 10.5; 100 μL, per well). Bound SRB was then read by absorbance at 492 nm on a SpectraMax plate reader (Molecular Devices). The percent survival was then calculated based upon the absorbance values relative to control wells (0 μM SBP in 0.1% DMSO).

Data set [2] is described as follows: Peripheral pathology and liver toxicity in non-tumor bearing mice. The format is in vivo, C57BL/6 mice. The procedure: Histology: For brain tumor histology, mice were perfused intracardially with 4% formaldehyde in Na+/K+ balanced PBS and brains were extracted, incubated in 4% formaldehyde overnight followed by 30% sucrose in Na+/K+ balanced PBS. Brains were flash frozen in isopentane, embedded in optimal cutting temperature compound (OCT), cryosectioned in coronal sections (12 μm) and stained with hematoxylin and eosin. Another cohort of equivalently drug-treated mice was used for liver, lung and gut histology. The mice were then sacrificed on day 19, and the liver, lung and gut tissues were collected and placed in 4% formaldehyde in Na+/K+ balanced PBS overnight. The organs were then placed for 48 hrs in 70% EtOH before paraffin embedding and sectioning at 6 μm. Sections were then stained with hematoxylin and eosin and pathology was assessed blindly and independently by a trained pathologist. A TUNEL staining kit was obtained from TREVIGEN (NeuroTACS II In Situ Apoptosis Detection Kit, Cat#4823-30-K) and used for both ex-vivo slices and in-vitro staining according to manufacturers instructions.
Intra-cardial blood was collected from the non-tumor bearing mice and subjected to centrifugation for 10 minutes to collect the serum. Aspartate transaminase and Alanine transaminase levels were measured in the serum using Bio Scientific (3913 Todd Lane Suite 312 Austin, Tex.) colorimetric kits (Cat#5605-01 and 3460-08 respectively).
To test if the low level of growth inhibition noted in HFF cells translated into lower systemic toxicity in-vivo, non-tumor bearing control and treatment groups of mice were treated with saline and SBP (10 mg/kg), respectively, on days one, seven, and 13. On day 19 following the first SPB or saline injection, the liver, lungs and proximal small intestine were collected for histopathological analysis.

Data set [3] relates to A549 and H1703 lung cancer lines, and 886LN, Tu212, and Tu686 head/neck cancer lines. The note with it: head-neck and lung tumor lines; cited from earlier work.
The mark [4] stands for this setting: 10 mg/kg days 1, 7, 13, day 19, non-tumor bearing mice.

Usually inhibition stands for the drop in the measured response relative to a control, in per cent. The term IC50 denotes the point on the concentration scale where inhibition reaches its midpoint. As for `CCC(C)c1ccc2ccc3ccc(C(C)CC)nc3c2n1` (stereo not drawn) [Compound 1, 2,9-di-sec-butyl-1,10-phenanthroline], the inhibition at 6 µM in data set [1] (6 μM, 48 hours, read-out: HFF growth inhibition) was about 20%. Moreover, the inhibition at 25 µM in data set [1] (25 μM, 48 hours, read-out: HFF growth inhibition) worked out at 36.9 ± 1.3%. Moreover, the IC50 in data set [1] (not reached at 25 μM, read-out: IC50 on non-cancerous human fibroblast cells) was over 25 µM. In addition, in data set [2] (10 mg/kg days 1, 7, 13, day 19), the “histopathology, duodenum” value is listed as “no general pathology”; the “histopathology, liver” value was “some endothelial damage, but no overt hepatocyte damage”; the “histopathology, lung” value was “no overt pathology”. Further, in data set [2] (setting [4]), the “serum alanine transaminase (ALT)” value is listed as 49.71±14.61 U/L and the “serum aspartate transaminase (AST)” value worked out at 212.3±14.62 U/L. Besides, the “side effects in healthy mice” value in data set [2] (mouse, in vivo) is on record as “did not appear to experience any significant side effects”. Also, in data set [3], the “IC50 times lower than cisplatin” value was 20-100 times, the “IC50 times lower than the parent gold(III) complex” value is on record as 4-14 times and the “in-vitro IC50 values” is “in the nanomolar concentration regime”.

Source of the values: US20150125550A1, “APPLICATION OF 2,9-DI-SEC-BUTYL-1,10-PHENANTHROLINE AS A GLIOBLASTOMA TUMOR CHEMOTHERAPY” (priority 2013, published 2015).
